# Laboratory results from US11279761B2, “Anti-PD-L1 combinations for treating tumors” (BIRDIE BIOPHARMACEUTICALS, INC., priority 2014, dated 2022).
# Columns and labels:
# [1] = system: mouse colon adenocarcinoma 26 (C26) tumor; assay: Combinational efficacy of R848 and anti-PD-1 antibody in PD-L1 expressed C26 tumor model; assay type: in vivo; conditions: C26 s.c. in BALB/c mice; single agent, three-week period
# Procedure: The objective of this study was to determine the single or combinational efficacy of R848 and anti-PD-1 monoclonal antibody in the mouse colon adenocarcinoma 26 (C26) tumor model in immune-competent mouse. C26 cells were inoculated by subcutaneous injection into the right flank of BALB/c mice on Day 0. Tumors were monitored until they reached a mean tumor volume of between 60 and 100 mm3. Mice were then administered over a three-week period 10 mg/kg IV (via tail vein) of rat anti-mouse PD-1 monoclonal antibody alone twice weekly, 0.08 mg/kg of R848 alone once weekly, or a combination of anti-PD-1 antibody and R848. Tumor volumes were recorded twice weekly over the course of the study and the mice were observed regularly. Tumor-bearing mice (treatment, control) were sacrificed at Day 26 or if they became moribund before the tumor volume reached 2000 mm3. […] The differences in tumor inhibition by the combination treatment compared to that of each component is shown graphically (FIG. 5) and was highly significant (p=0.0002, anti-PD-1 and R848 combined versus R848 alone; p=0.0063 anti-PD-1 and R848 combined versus anti-PD-1 alone).
# C26 tumor = assay: Combinational efficacy of anti-PD-L1 and R848 in PD-L1 expressed C26 tumor model (Study No. R-BDB001-0008); assay type: in vivo; conditions: C26 s.c. in BALB/c mice; single agent, 3-week period
# Procedure: The objective of this study was to determine the single or combinational efficacy of R848 and anti-PD-L1 monoclonal antibody in the C26 tumor model in immune-competent mouse. C26 cells were inoculated by subcutaneous injection into the right flank of BALB/c mice on Day 0. Tumors were monitored until they reached a mean tumor volume of between 60 and 100 mm3, inclusive. Mice were administered, over a 3-week period, 10 mg/kg IV (via tail vein) of rat anti-mouse PD-L1 monoclonal antibody alone twice weekly, 0.08 mg/kg of R848 alone once weekly, or a combination of anti-PD-L1 antibody and R848.
# The differences in tumor inhibition by the combination treatment compared to that of each component is shown graphically (FIG. 6)) and was highly significant (p=0.0029, anti-PDL1 and R848 combined versus R848 alone; p=0.0074, anti-PDL1 and R848 combined versus anti-PDL1 alone).
smiles,measurement,setting,value
"CCOCc1nc2c(N)nc3ccccc3c2n1CC(C)(C)O [R848, 4-amino-2-(ethoxymethyl)-a,a-di-methyl-1H-imidazo[4,5-c]quinoline-1-ethanol]",inhibition in tumor growth,[1],Limited inhibition
same,inhibition in tumor growth,C26 tumor,Limited inhibition
